Assay results: PMC10298284, “Synthesis and hLDH Inhibitory Activity of Analogues to Natural Products with 2,8-Dioxabicyclo[3.3.1]nonane Scaffold” (International Journal of Molecular Sciences, 2023)
Like-named read-outs stand apart in the source and are kept apart here.

Experiments:
recombinant human LDHA [1] = biological target: T1, recombinant human LDHA (Homo sapiens, UniProt P00338); set-up: method as in PMID 36113265; details: compounds evaluated previously, cited from earlier work; for IC50: included for comparative purposes, read-out: hLDHA IC50; for Selectivity Rate (IC50 hLDHB/hLDHA): ratio IC50 hLDHB / IC50 hLDHA
T1 construct: purchased Abcam

recombinant human LDHB [2] = biological target: T2, recombinant human LDHB (Homo sapiens, UniProt P07195); test: hLDHB enzymatic activity assay (same fluorimetric protocol); type: biochemical; details: mean ± SD of n = 3 replicates
T2 construct: purchased Abcam
T2 sequence (P07195 whole entry): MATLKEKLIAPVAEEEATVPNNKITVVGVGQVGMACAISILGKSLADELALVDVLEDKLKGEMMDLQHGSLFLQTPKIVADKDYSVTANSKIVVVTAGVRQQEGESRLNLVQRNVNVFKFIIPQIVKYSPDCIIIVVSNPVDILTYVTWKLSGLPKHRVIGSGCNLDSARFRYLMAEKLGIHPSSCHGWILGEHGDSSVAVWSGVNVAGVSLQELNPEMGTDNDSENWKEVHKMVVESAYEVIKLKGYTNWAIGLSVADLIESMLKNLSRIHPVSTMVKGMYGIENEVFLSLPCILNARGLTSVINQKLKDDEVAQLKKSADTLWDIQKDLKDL
Method: (§1) Briefly, the decrease in the coenzyme β-NADH fluorescence (λemission = 460 nm) was measured for 10 min, at different concentration of inhibitors, and its slope was compared with the one obtained when there were not inhibitors added (100% enzymatic activity).
The ability of the synthesized compounds to inhibit the hLDHB enzyme was measured using recombinant human LDHB (95%, specific activity >300 units/mg and concentration of 1.0 mg/mL, Abcam, Cambridge, UK) following the same fluorimetric protocol described in Section 3.4.

recombinant human LDHB [3] = biological target: T2, recombinant human LDHB; set-up: method as in PMID 36113265; details: compounds evaluated previously, included for comparative purposes; read-out: hLDHB IC50; cited from earlier work
recombinant human LDHA [4] = biological target: T1, recombinant human LDHA; test: hLDHA enzymatic activity assay (kinetic spectrofluorimetric, β-NADH fluorescence decrease); type: biochemical; details: for IC50: mean ± SD of n = 3 replicates
Method: as §1
The enzymatic assay was conducted on 96-well microplates and the decrease in the β-NADH fluorescence (λexcitation = 340 nm; λemission = 460 nm) was detected in a TECAN Infinite 200 Pro M Plex fluorescent plate reader (Tecan Instrument, Inc.) at 28 °C. The activity was determined according to our previously described protocol. The final volume in each well was set to 200 µL using 100 mM potassium phosphate buffer, 0.041 units/mL LDHA, 155 µM β-NADH, 1 mM pyruvate (saturated conditions), and DMSO solutions (5%, v/v) of pure compounds at concentrations in the range of 1–600 µM. The addition of pyruvate allowed the beginning of the reaction and fluorescence was registered every 60 s during 10 min. A lineal time interval was selected to calculate the slope at every single concentration. […] The slope obtained at each concentration was compared to the one obtained for the 100% enzymatic activity control to determine the corresponding enzymatic activity. A nonlinear regression analysis in GraphPad Prism version 9.00 for Windows (GraphPad Software, La Jolla, CA, USA) was used for dose response curve, fitting of logarithm of inhibitor concentration vs. normalized enzymatic activity, to calculate IC50 values (Supplementary Material section). All measurements were made in triplicate and data were expressed as the mean ± SD.

[5] = supplementary dose response curves, µM only on the axis label, read-out: IC50 (hLDHB inhibition curve)

SMILES	IC50 (recombinant human LDHA [1]) [µM]	Selectivity Rate (IC50 hLDHB/hLDHA) (recombinant human LDHA [1])	IC50 (recombinant human LDHB [2]; [5]) [µM]	IC50 (recombinant human LDHB [3]) [µM]	IC50 (recombinant human LDHA [4]; 1 mM pyruvate, 155 µM β-NADH, pH 7.3, 28 °C, read-out: hLDHA IC50) [µM]	Selectivity Rate (IC50 hLDHB/hLDHA) (recombinant human LDHA [4]; ratio IC50 hLDHB / IC50 hLDHA)	IC50 (recombinant human LDHA [4]; supplementary dose response curves, µM only on the axis label, read-out: IC50 (hLDHA inhibition curve)) [µM]	IC50 (recombinant human LDHB [2]; read-out: hLDHB IC50) [µM]	melting point [°C]
Oc1cc(O)c2c(c1)OC1(c3ccc(O)c(O)c3)CC2c2ccccc2O1 (racemic) [(±)-1]	73.1 ± 2.5	0.5	35.4 ± 0.8	–	–	–	–	–	–
O=[N+]([O-])c1ccc2c(c1)C1CC(c3ccc(O)c(O)c3)(O2)Oc2cc(O)cc(O)c21 (racemic) [(±)-2]	9.7 ± 1.1	3.0	–	28.6 ± 1.9	–	–	–	–	–
Oc1cc(O)c2c(c1)OC1(c3ccc(O)c(O)c3)CC2c2cc(Cl)ccc2O1 (racemic) [(±)-3]	15.7 ± 2.7	2.5	–	39.7 ± 2.8	–	–	–	–	–
Oc1ccc(C23CC(c4ccccc4O2)c2c(O)cc(O)cc2O3)cc1 (racemic) [(±)-4]	60 ± 4.7	0.8	45.9 ± 1.5	–	–	–	–	–	–
O=[N+]([O-])c1ccc2c(c1)C1CC(c3ccc(O)cc3)(O2)Oc2cc(O)cc(O)c21 (racemic) [(±)-5]	24.4 ± 2.7	2.9	–	69.7 ± 4.7	–	–	–	–	–
Oc1ccc(C23CC(c4cc(Cl)ccc4O2)c2c(O)cc(O)cc2O3)cc1 (racemic) [(±)-6]	26.7 ± 0.8	3.2	–	85.5 ± 2.5	–	–	–	–	–
COc1ccc(C2CC3=C(C(=O)O2)C2CC(c4ccc(OC)c(OC)c4)(O3)Oc3ccc(Cl)cc32)cc1 (racemic) [(±)-70a, 2-(3′.4′-Dimethoxyphenyl)-6-chlorochromane-(4→3″, 2→O-4″)-4″-hydroxy-6″-(4‴-methoxyphenyl)-5″,6″-dihydro-2H-pyran-2″-one]	–	–	–	–	112 ± 3	>2.7	112 ± 3	> 300	108 to 111
